Experimental data from patent publication US20120251630A1, “REMISSION THERAPY OF CANCER WITH ISOFLAVONOIDS” (MARSHALL EDWARDS, INC., priority 2011, published 2012).

Assays:
Assay type in all cases: cell-based, human
ovarian cancer stem cell = test: Mitochondrial function assessment (JC1 dye, MitoSox dye, ApoSENSOR ADP/ATP kit); details: overall conclusion of Example 1
Experimental: (§1) A panel of CD44+/MYD88+ epithelial ovarian cancer (EOC) stem cells was treated with compound 1 (10 μg/mL) at designated times. CD44+/MYD88+ ovarian cancer stem cells are isolated from either tumor tissue or ascites obtained from patients diagnosed with stage III/IV serous ovarian carcinoma. Mitochondrial function was assessed using the JC1 dye (Biovision Inc), MitoSox dye (Invitrogen), and ApoSENSOR ADP/ATP kit (Biovision Inc.). Protein levels were determined using Western blot analysis. […] The impact of compound 1 on energy production was examined by measuring ADP and ATP levels. […] The stem cells were treated with increasing with compound 1 (10 μg/mL) at times points shown.

EOC stem cells [1] = test: Western blot analysis of protein levels (Cox-IV, pS6 kinase, ERK, AMPKα1)
Experimental: FIG. 3. Western blot analysis illustrates a decrease in Cox-IV and pS6 kinase, and activation of ERK and AMPKα1 (C).
FIG. 4. EOC stem cells were treated with compound 1 in the presence or absence of the ROS scavenger, MnTBAP. Western blot analysis (FIG. 2) illustrates the effect of MnTBAP pretreatment on mitochondrial ERK, pS6 and β-actin activation. […] Compound 1-induced ROS production leads to ERK activation and loss of mitochondrial membrane potential (MMP).
FIG. 8. Western blot analysis illustrates that treatment of ovarian cancer stem cells with compound 1 in the presence of FBS was able to prevent compound 1 induced decrease in pS6 kinase.
as §1
(§2) Inhibitory studies were done using the specific MEK inhibitor U0126 (10 μM) or the ROS scavenger, MnTBAP (500 μM). EOC stem cells were treated with compound 1 in the presence or absence of the ROS scavenger, MnTBAP (Alexis Biochemicals). […] (FIG. 4) EOC stem cells were treated with compound 1 in the presence or absence of the MEK inhibitor, U0126 (Sigma Aldrich). EOC stem cells were pre-treated with U0126 (10 μM) for 1 hour before treatment with compound 1. Flow cytometry analysis using JC1 green fluorescence illustrates the effect of compound 1 on mitochondrial membrane potential. Pretreatment with U0126 reduced the percentage of cells that lost mitochondrial membrane potential (59% vs 23% for compound 1 along and compound 1 with U0126, respectively) (FIG. 5). The mitochondrial fractions of cells treated with compound 1 in the presence or absence of U0126 were analyzed. […] (FIG. 6)
(§3) EOC stem cells were treated with compound 1 in the presence of 10% fetal bovine serum (FBS).

EOC stem cells [2] = test: Flow cytometry with JC1 dye, mitochondrial membrane potential
Experimental: FIG. 5. EOC stem cells were treated with compound 1 in the presence or absence of the MEK inhibitor, U0126. Flow cytometry analysis using JC1 dye illustrates the effect on mitochondrial membrane potential (MMP). FIG. 5 illustrates that inhibition of ERK with U0126 is able to reverse the effect of compound 1 on MMP.
as §1
Inhibitory studies were done using the specific MEK inhibitor U0126 (10 μM) or the ROS scavenger, MnTBAP (500 μM). […] Flow cytometry analysis using JC1 green fluorescence illustrates the effect of compound 1 on mitochondrial membrane potential. […] The mitochondrial fractions of cells treated with compound 1 in the presence or absence of U0126 were analyzed. […]

EOC stem cells [3] = test: Western blot analysis of mitochondrial fractions, Bax
Experimental: FIG. 6. Western blot analysis using mitochondrial fractions illustrates the effect on mitochondrial Bax. U0126 inhibited compound 1-induced loss of mitochondrial membrane potential and mitochondrial translocation of Bax (member of the proapoptotic Bcl2 family).
as §2

[4] = system: CD44+/MYD88+ epithelial ovarian cancer (EOC) stem cells; test: ApoSENSOR ADP/ATP ratio assay kit, ATP and ADP levels
Experimental: FIG. 2 illustrates the levels of ATP and ADP measured at designated times using Apo-SENSOR ADP/ATP ratio assay kit. […] (p<0.0001 compared to control)
FIG. 7. Compound 1-induced loss of ATP leads to mTor inhibition. EOC stem cells were treated with compound 1 in the presence of 10% FBS. FIG. 7 illustrates the levels of ATP and ADP measured at designated times using ApoS-SENSOR ADP/ATP ratio assay kit. # p<0.001 compared to compound 1 alone.
as §1, §3

[5] = system: CD44+/MYD88+ epithelial ovarian cancer (EOC) stem cells; test: Flow cytometry with MitoSox dye, mitochondrial superoxide; details: 10 μg/mL, designated times
Experimental: FIG. 1. EOC stem cells were treated with 10 μg/ml compound 1 at designated times. Flow cytometry analysis (FIG. 1) illustrates the increased levels of mitochondrial superoxide using MitoSox dye.
as §1

[6] = in the presence of 10% fetal bovine serum (FBS)

COc1ccc(C2c3ccc(O)c(C)c3OCC2c2ccc(O)cc2)cc1 (stereo not drawn) [compound 1, 3-(4-hydroxyphenyl)-4-(4-methoxyphenyl)-8-methylchroman-7-ol]
mitochondrial function (ovarian cancer stem cell): significantly inhibits mitochondrial function | Cox-IV protein level (Western blot) (EOC stem cells [1]; 10 μg/mL): decreases activation | activation of AMPKα1 (Western blot) (EOC stem cells [1]; 10 μg/mL): increases activation | activation of ERK (Western blot) (EOC stem cells [1]; 10 μg/mL): increases activation | activation of pS6 kinase (Western blot) (EOC stem cells [1]; 10 μg/mL): decreases activation | compound 1-induced decrease in pS6k (EOC stem cells [1]; [6]): prevented compound 1-induced decrease in pS6k | compound 1-induced activation of mitochondrial ERK (EOC stem cells [1]; in the presence of ROS scavenger MnTBAP (500 μM)): MnTBAP inhibited compound 1-induced activation of mitochondrial ERK | percentage of cells that lost mitochondrial membrane potential (EOC stem cells [2]; compound 1 alone): 59% | percentage of cells that lost mitochondrial membrane potential (EOC stem cells [2]; pre-treated with MEK inhibitor U0126 (10 μM) for 1 hour before compound 1): 23% | mitochondrial Bax (proapoptotic Bcl2 family member) (EOC stem cells [3]; compound 1 alone, mitochondrial fractions): upregulates | compound 1-induced upregulation of mitochondrial Bax (EOC stem cells [3]; pre-treatment with U0126 followed by compound 1): prevented compound 1-induced upregulation | ADP level ([4]; 10 μg/mL, after 2 and 4 hours of treatment): accumulated ADP | ATP production ([4]; 10 μg/mL, after 2 and 4 hours of treatment, p<0.0001 compared to control): decrease in ATP production | ATP loss [4, 6]: Abrogation of ATP loss | mitochondrial superoxide (MitoSox fluorescence) [5]: increase in mitochondrial superoxide
